Test results: patent US9113629B2, “4-amino-6-(4-substituted-phenyl)-picolinates and 6-amino-2-(4-substituted-phenyl)-pyrimidine-4-carboxylates and their use as herbicides” (DOW AGROSCIENCES LLC, priority 2013, dated 2015)
Where two headings read alike, the source gives them in different places.

What was measured:
[1] = test system: Key Broadleaf Weed and Crop Species; experiment: Post-emergent Test II herbicidal activity (Table 5); type: in vivo; conditions: post-emergence, 336 h, post-emergent, 14 days after application; for pest or weed control at 70 g/ha: application rate 70 g ai/ha; for pest or weed control at 140 g/ha: application rate 140 g ai/ha
In short: (§1)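 Compounds, dissolved in 97:3 acetone/DMSO and diluted into an aqueous carrier containing crop oil concentrate and Triton X-155, are applied over the top of young plants at 187 L/ha. Injury is scored visually at 14 d, 0% meaning no effect and 100% complete kill.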

[2] = test system: Key Grass and Sedge Weeds as well as Grass Crops; experiment: Post-emergent Test II herbicidal activity (Table 6); type: in vivo; conditions: post-emergence, 336 h; for pest or weed control at 70 g/ha: application rate 70 g ai/ha; for pest or weed control at 140 g/ha: application rate 140 g ai/ha
In short: as §1

[3] = ABUTH: velvetleaf (Abutilon theophrasti), read-out: Visual Growth Reduction (%) 14 Days After Application, ABUTH
[4] = AMARE: redroot pigweed (Amaranthus retroflexus), read-out: Visual Growth Reduction (%) 14 Days After Application, AMARE
[5] = BRSNN: oilseed-rape, canola (Brassica napus), read-out: Visual Growth Reduction (%) 14 Days After Application, BRSNN
[6] = CHEAL: lambsquarters (Chenopodium album), read-out: Visual Growth Reduction (%) 14 Days After Application, CHEAL
[7] = EPHHL: wild poinsettia (Euphorbia heterophylla), read-out: Visual Growth Reduction (%) 14 Days After Application, EPHHL
[8] = HELAN: sunflower (Helianthus annuus), read-out: Visual Growth Reduction (%) 14 Days After Application, HELAN
[9] = VIOTR: wild pansy (Viola tricolor), read-out: Visual Growth Reduction (%) 14 Days After Application, VIOTR
[10] = CYPES: yellow nutsedge (Cyperus esculentus), read-out: Visual Growth Reduction (%) 14 Days After Application, CYPES
[11] = DIGSA: crabgrass (Digitaria sanguinalis), read-out: Visual Growth Reduction (%) 14 Days After Application, DIGSA
[12] = ECHCG: barnyardgrass (Echinochloa crus-galli), read-out: Visual Growth Reduction (%) 14 Days After Application, ECHCG
[13] = ORYSA: rice (Oryza sativa), read-out: Visual Growth Reduction (%) 14 Days After Application, ORYSA
[14] = SETFA: giant foxtail (Setaria faberi), read-out: Visual Growth Reduction (%) 14 Days After Application, SETFA
[15] = SORVU: grain sorghum (Sorghum vulgare), read-out: Visual Growth Reduction (%) 14 Days After Application, SORVU
[16] = TRZSS (wheat, Triticum aestivum), read-out: Visual Growth Reduction (%) 14 Days After Application, TRZSS
[17] = ZEAMX: maize, corn (Zea mays), read-out: Visual Growth Reduction (%) 14 Days After Application, ZEAMX

SMILES | pest or weed control at 70 g/ha [1, 3] [%] | pest or weed control at 140 g/ha [1, 3] [%] | pest or weed control at 70 g/ha [1, 4] [%] | pest or weed control at 140 g/ha [1, 4] [%] | pest or weed control at 70 g/ha [1, 5] [%] | pest or weed control at 140 g/ha [1, 5] [%] | pest or weed control at 70 g/ha [1, 6] [%] | pest or weed control at 140 g/ha [1, 6] [%] | pest or weed control at 70 g/ha [1, 7] [%] | pest or weed control at 140 g/ha [1, 7] [%] | pest or weed control at 70 g/ha [1, 8] [%] | pest or weed control at 140 g/ha [1, 8] [%] | pest or weed control at 70 g/ha [1, 9] [%] | pest or weed control at 140 g/ha [1, 9] [%] | pest or weed control at 70 g/ha [2, 10] [%] | pest or weed control at 140 g/ha [2, 10] [%] | pest or weed control at 70 g/ha [2, 11] [%] | pest or weed control at 140 g/ha [2, 11] [%] | pest or weed control at 70 g/ha [2, 12] [%] | pest or weed control at 140 g/ha [2, 12] [%] | other results
Cc1cc(F)c(-c2cc(N)c(Cl)c(C(=O)O)n2)cc1F [Compound 188] | 75 to 84 | 95 to 100 | 95 to 100 | 95 to 100 | 60 to 74 | 60 to 74 | 95 to 100 | 85 to 94 | 95 to 100 | 95 to 100 | 75 to 84 | 75 to 84 | 0 to 29 | 0 to 29 | 0 to 29 | 0 to 29 | 0 to 29 | 0 to 29 | 75 to 84 | 60 to 74 | pest or weed control at 70 g/ha [2, 13]: 0 to 29%; pest or weed control at 140 g/ha [2, 13]: 0 to 29%; pest or weed control at 70 g/ha [2, 14]: 0 to 29%; pest or weed control at 140 g/ha [2, 14]: 30 to 44%; pest or weed control at 70 g/ha [2, 15]: 45 to 59%; pest or weed control at 140 g/ha [2, 15]: 0 to 29%; pest or weed control at 70 g/ha [2, 16]: 0 to 29%; pest or weed control at 140 g/ha [2, 16]: 0 to 29%; pest or weed control at 70 g/ha [2, 17]: 0 to 29%; pest or weed control at 140 g/ha [2, 17]: 0 to 29%; melting point: 172.9 to 175 °C
Cc1cc(F)c(-c2nc(C(=O)O)c(Cl)c(N)c2F)cc1F [Compound 194] | 60 to 74 | 75 to 84 | 95 to 100 | 95 to 100 | 60 to 74 | 75 to 84 | 75 to 84 | 85 to 94 | 85 to 94 | 85 to 94 | 85 to 94 | 95 to 100 | 0 to 29 | 0 to 29 | 0 to 29 | 0 to 29 | 0 to 29 | 0 to 29 | 0 to 29 | 0 to 29 | pest or weed control at 70 g/ha [2, 13]: 0 to 29%; pest or weed control at 140 g/ha [2, 13]: 0 to 29%; pest or weed control at 70 g/ha [2, 14]: 45 to 59%; pest or weed control at 140 g/ha [2, 14]: 60 to 74%; pest or weed control at 70 g/ha [2, 15]: 0 to 29%; pest or weed control at 140 g/ha [2, 15]: 0 to 29%; pest or weed control at 70 g/ha [2, 16]: 0 to 29%; pest or weed control at 140 g/ha [2, 16]: 0 to 29%; pest or weed control at 70 g/ha [2, 17]: 0 to 29%; pest or weed control at 140 g/ha [2, 17]: 0 to 29%; melting point: 167.4 to 170.2 °C
Nc1c(F)c(-c2cc(F)c(OC(F)F)cc2F)nc(C(=O)O)c1Cl [Compound 195] | 0 to 29 | 0 to 29 | 0 to 29 | 45 to 59 | 45 to 59 | 60 to 74 | 45 to 59 | 75 to 84 | 30 to 44 | 30 to 44 | 60 to 74 | 85 to 94 | 0 to 29 | 0 to 29 | 0 to 29 | 0 to 29 | 0 to 29 | 0 to 29 | 0 to 29 | 0 to 29 | pest or weed control at 70 g/ha [2, 13]: 0 to 29%; pest or weed control at 140 g/ha [2, 13]: 0 to 29%; pest or weed control at 70 g/ha [2, 14]: 0 to 29%; pest or weed control at 140 g/ha [2, 14]: 0 to 29%; pest or weed control at 70 g/ha [2, 15]: 0 to 29%; pest or weed control at 140 g/ha [2, 15]: 0 to 29%; pest or weed control at 70 g/ha [2, 16]: 0 to 29%; pest or weed control at 140 g/ha [2, 16]: 0 to 29%; pest or weed control at 70 g/ha [2, 17]: 0 to 29%; pest or weed control at 140 g/ha [2, 17]: 0 to 29%; melting point: 162 to 165 °C
COc1c(N)nc(-c2cc(F)c(C)cc2F)nc1C(=O)O [Compound 201] | 30 to 44 | 60 to 74 | 30 to 44 | 60 to 74 | 95 to 100 | 95 to 100 | 85 to 94 | 75 to 84 | 45 to 59 | 85 to 94 | 60 to 74 | 75 to 84 | 0 to 29 | 0 to 29 | 0 to 29 | 0 to 29 | 0 to 29 | 0 to 29 | 60 to 74 | 45 to 59 | pest or weed control at 70 g/ha [2, 13]: 0 to 29%; pest or weed control at 140 g/ha [2, 13]: 0 to 29%; pest or weed control at 70 g/ha [2, 14]: 0 to 29%; pest or weed control at 140 g/ha [2, 14]: 30 to 44%; pest or weed control at 70 g/ha [2, 15]: 0 to 29%; pest or weed control at 140 g/ha [2, 15]: 45 to 59%; pest or weed control at 70 g/ha [2, 16]: 0 to 29%; pest or weed control at 140 g/ha [2, 16]: 0 to 29%; pest or weed control at 70 g/ha [2, 17]: 0 to 29%; pest or weed control at 140 g/ha [2, 17]: 0 to 29%; melting point: 135.9 to 137.7 °C
